In patent US9259482B2, “Conjugates of polymers having a therapeutically active agent and an angiogenesis targeting moiety attached thereto and uses thereof in the treatment of angiogenesis related diseases” (Ramot at Tel-Aviv University Ltd., priority 2008, dated 2016):
Where two headings read alike, the source gives them in different places. Non-standard residues stand in square brackets, D forms with d.

Tests used:
HUVEC [1] = assay: cells; type: cell-based, human; settings: for IC50: HUVEC
Description: (§1) The anti-angiogenesis and anti-proliferative activity of the conjugates described herein was evaluated by the effect of the conjugates on the proliferation of HUVEC, U87 and PANC02 cells.
(§2) HUVEC were plated onto 24-well plate (1×10^4 cells/well) in endothelial cell basal medium 2 (EBM-2; Cambrex, USA) supplemented with 5% fetal bovine serum (FBS). Following 24 hours of incubation (37° C.; 5% CO2) medium was replaced with Endothelial cell growth medium-2 (EGM-2; Cambrex, USA). U87 and PANC02 cells were plated onto 96 well plate (2×10^3 cells/well) in DMEM supplemented with 5% FBS and incubated for 24 hours (37° C.; 5% CO2). Following 24 hours of incubation the medium was replaced with DMEM containing 10% FBS. Cells were challenged with the tested compounds at serial concentrations for 72 hours. After incubation the number of HUVEC were counted by Coulter Counter and U87, and PANC02 cells were counted by XTT respectively.

HUVEC [2] = assay: Migration assay of HUVEC towards VEGF; type: cell-based, human; settings: equivalent concentrations of 100 nM PTX, conjugate with 5 mol % E-[c(RGDfk)2], 2.6 mol % PTX, FIG. 14
Description: The anti-angiogenesis activity of the conjugates was evaluated by examining the effect of the conjugates on the ability of HUVEC to migrate toward the Vascular Endothelial Growth Factor (VEGF).
Cell migration assay was performed using modified 8 μm Boyden chambers Transwells® (Costar Inc., USA) coated with 10 μg/ml fibronectin HUVEC (15×10^4 cells/100 μl) were challenged with the tested compounds that were added to the upper chamber of the transwells for 2 hours. Following incubation, cells were allowed to migrate to the underside of the chamber for 4 hours in the presence or absence of VEGF (20 ng/ml) in the lower chamber. Cells were then fixed and stained (Hema 3 Stain System; Fisher Diagnostics, USA). The stained migrated cells were imaged using Nikon TE2000E inverted microscope integrated with Nikon DS5 cooled CCD camera by 10× objective, brightfield illumination. Migrated cells from the captured images per membrane were counted using NIH image software. Migration was normalized to the percent of migration toward VEGF of HUVEC which were not incubated with any compound. The extent of migration is inversely proportional to the anti-angiogenesis activity of the compounds.

HUVEC [3] = assay: Endothelial cell adhesion assay on fibrinogen coated plates; type: cell-based, human; settings: for effect of free peptides on HUVEC adhesion: free peptide at 50 μM; for inhibition of HUVEC adhesion to fibrinogen: with a similar amount of PTX
Description: The ability of E-[c(RGDfk)2] and E-c(RGDfk) moieties (SEQ ID NOs: 2 and 41) in the conjugates to inhibit endothelial attachment to cellular matrix after conjugation, was assessed using an adhesion assay. Flat bottom 96-well culture plates (Nunc, Denmark) were coated with 0.5 μg/well fibrinogen overnight at 4° C. After washing three times with Phosphate buffered saline (PBS), the wells were blocked with 1% bovine serum albumin (BSA) for 1 hour at 37° C. and washed three times again with PBS. HUVEC were harvested in phosphate-buffered saline (137 mM NaCl, 2.7 mM KCl, 4.3 mM Na2HPO4, 1.4 mM KH2PO4, pH 7.3) with 2.5 mM EDTA and resuspended in EBM-2 serum-free media (Clonetics). HUVEC were incubated for 30 minutes, at room temperature, with the tested compounds. The treated HUVEC were plated at 5×10^4 cells per well and were allowed to attach for 1 hour at 37° C. After incubation, the unattached cells were removed by rinsing the wells with PBS. The attached cells were fixed with 3.7% formaldehyde, stained with 0.5% crystal violet and were imaged using Nikon TE2000E inverted microscope integrated with Nikon DS5 cooled CCD camera by 4× objective, brightfield technique. The number of attached cells was quantified with NIH ImageJ processing and analysis software. Non-specific binding was determined by adhesion of HUVEC cells, which were not incubated with any of the tested compounds, to BSA-coated plates.

[4] = tested on: PANC02 murine pancreatic tumor cells; assay: Cell proliferation assay, PANC02; type: cell-based
Description: as §1, §2

HUVEC [5] = assay: Capillary-like tube formation assay; type: cell-based, human; settings: equivalent concentrations of 10 nM (PTX) and 19 nM (E-[c(RGDfk)2]), conjugate with 5 mol % E-[c(RGDfk)2], 2.6 mol % PTX, FIG. 16B
Description: The anti-angiogenesis activity of the conjugates was evaluated by the effect of the conjugates on the ability of HUVEC cells to form capillary-like tube structures.
The surface of 24-well plates was coated with Matrigel matrix (50 μl/well) (BD Biosciences, USA) on ice and was then allowed to polymerize at 37° C. for 30 minutes. HUVEC (3×10^4 cells) were challenged with the tested compounds, and were seeded on coated plates in the presence of complete EGM-2 medium. After 8 hours of incubation (37° C.; 5% CO2), wells were imaged using Nikon TE2000E inverted microscope integrated with Nikon DS5 cooled CCD camera by 4× objective, brightfield technique. During the tube formation assay endothelial cells directionally migrate to align, branch and form polygonal networks (i.e. tube like structures). The extent of capillary-like tube structures is inversely proportional to the anti-angiogenesis activity of the compounds.

[6] = tested on: U87 human glioblastoma cells; assay: Cell proliferation assay, U87; type: cell-based
Description: as §1, §2

αvβ3 integrin receptor = biological target: T1, αvβ3 integrin receptor (Homo sapiens, UniProt P05106+P06756); assay: αvβ3 interaction with fluorescently labeled conjugates in HUVEC; type: cell-based
T1 construct: endogenous in cells; host or cells: HUVEC
T1 sequence (P06756 31-889 limits assumed): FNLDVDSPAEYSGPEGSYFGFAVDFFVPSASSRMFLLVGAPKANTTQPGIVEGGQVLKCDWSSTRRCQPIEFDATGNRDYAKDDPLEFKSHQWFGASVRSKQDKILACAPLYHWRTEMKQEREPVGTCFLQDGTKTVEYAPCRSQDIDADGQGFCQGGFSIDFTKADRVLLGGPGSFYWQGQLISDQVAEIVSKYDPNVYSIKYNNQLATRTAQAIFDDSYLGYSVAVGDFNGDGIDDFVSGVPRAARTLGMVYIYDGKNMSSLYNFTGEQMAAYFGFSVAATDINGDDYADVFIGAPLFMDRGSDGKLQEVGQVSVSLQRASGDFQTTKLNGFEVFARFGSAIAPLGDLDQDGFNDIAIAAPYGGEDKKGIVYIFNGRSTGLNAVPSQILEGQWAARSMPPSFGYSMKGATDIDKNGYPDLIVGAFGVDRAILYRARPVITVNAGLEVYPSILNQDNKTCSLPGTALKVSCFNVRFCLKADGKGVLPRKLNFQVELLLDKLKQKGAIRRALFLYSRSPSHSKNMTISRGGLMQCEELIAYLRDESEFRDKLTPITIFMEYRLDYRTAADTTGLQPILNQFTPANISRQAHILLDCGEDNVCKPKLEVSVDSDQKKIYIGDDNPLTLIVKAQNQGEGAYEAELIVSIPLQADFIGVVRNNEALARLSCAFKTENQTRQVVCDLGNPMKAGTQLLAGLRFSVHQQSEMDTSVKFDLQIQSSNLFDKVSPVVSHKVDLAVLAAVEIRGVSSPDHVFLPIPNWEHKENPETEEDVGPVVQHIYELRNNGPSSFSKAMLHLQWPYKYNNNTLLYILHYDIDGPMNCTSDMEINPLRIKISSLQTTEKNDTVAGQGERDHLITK
T1 sequence (P06756 891-1048 limits assumed): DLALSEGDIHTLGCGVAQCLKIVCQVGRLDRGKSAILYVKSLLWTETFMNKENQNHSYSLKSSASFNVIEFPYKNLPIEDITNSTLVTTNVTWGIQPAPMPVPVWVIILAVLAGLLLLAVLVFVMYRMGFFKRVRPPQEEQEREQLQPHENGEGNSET
T1 sequence (P05106 27-788): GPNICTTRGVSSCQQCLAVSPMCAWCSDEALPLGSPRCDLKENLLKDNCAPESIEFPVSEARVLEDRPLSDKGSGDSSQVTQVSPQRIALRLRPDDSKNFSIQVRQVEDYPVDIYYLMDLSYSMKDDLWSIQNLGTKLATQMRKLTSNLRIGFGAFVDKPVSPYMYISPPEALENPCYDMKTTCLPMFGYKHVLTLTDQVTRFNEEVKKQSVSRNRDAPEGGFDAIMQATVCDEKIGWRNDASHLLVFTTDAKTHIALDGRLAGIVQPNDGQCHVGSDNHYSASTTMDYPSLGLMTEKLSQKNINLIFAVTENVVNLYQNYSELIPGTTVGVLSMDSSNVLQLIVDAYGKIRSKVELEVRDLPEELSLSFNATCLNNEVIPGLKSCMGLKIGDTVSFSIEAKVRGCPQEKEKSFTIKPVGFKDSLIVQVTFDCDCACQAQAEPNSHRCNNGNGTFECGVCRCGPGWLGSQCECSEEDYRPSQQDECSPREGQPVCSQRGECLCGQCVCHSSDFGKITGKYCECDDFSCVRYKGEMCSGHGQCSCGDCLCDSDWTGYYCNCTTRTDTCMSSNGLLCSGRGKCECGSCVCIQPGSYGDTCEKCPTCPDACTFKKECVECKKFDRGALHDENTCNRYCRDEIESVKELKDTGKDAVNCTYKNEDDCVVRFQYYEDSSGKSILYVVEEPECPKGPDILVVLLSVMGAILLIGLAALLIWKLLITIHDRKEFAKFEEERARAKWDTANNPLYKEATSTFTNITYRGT
Description: A fluorescence probe, Oregon Green-cadaverine (OG), was conjugated to PGA conjugates through the free carboxylic groups (see Example 5 for synthesis description), in order to study the cellular uptake and trafficking.
HUVEC were plated onto 6 mm plates (5×10^5 cells/plate) in EBM-2 (Cambrex, USA) supplemented with 5% FBS. Following 24 hours of incubation (37° C.; 5% CO2), cells were challenged with either PGA-OG, PGA-c(RADfk)-OG (SEQ ID NO: 24) or PGA-E-[c(RGDfk)2]-OG (SEQ ID NO:25) diluted in EGM-2 medium for 5, 10, 15, 30 or 60 minutes. Cells were then washed in PBS (×3), harvested with PBS containing 2.5 mM EDTA and analyzed with the ImageStream 100 imaging flow cytometer (Amnis). Analysis was performed using IDEAS software.

N=C(N)NCCC[C@@H]1NC(=O)[C@H](CCCCNC(=O)CC[C@H](N)C(=O)NCCCC[C@@H]2NC(=O)[C@@H](Cc3ccccc3)NC(=O)[C@H](CC(=O)O)NC(=O)CNC(=O)[C@H](CCCNC(=N)N)NC2=O)NC(=O)[C@@H](Cc2ccccc2)NC(=O)[C@H](CC(=O)O)NC(=O)CNC1=O [E-[c(RGDfk)2]]
effect on HUVEC proliferation (HUVEC [1]; FIG. 12A): only at high concentrations | inhibition of the migration of HUVEC towards VEGF (HUVEC [2]): about 30% | effect of free peptides on HUVEC adhesion (HUVEC [3]): completely abrogated HUVEC adhesion

CC(=O)O[C@H]1C(=O)[C@@]2(C)[C@H]([C@H](OC(=O)c3ccccc3)[C@]3(O)C[C@H](OC(=O)[C@H](O)[C@@H](NC(=O)c4ccccc4)c4ccccc4)C(C)=C1C3(C)C)[C@]1(OC(C)=O)CO[C@@H]1C[C@@H]2O [PTX, Paclitaxel]
IC50 (HUVEC [1]; Homo sapiens, nM PTX, FIG. 12A, read-out: IC50 of HUVEC proliferation): ~0.01 nM | IC50 (HUVEC [1]; Homo sapiens, 72 hours, bis-cyclic RGD compounds (X = 2), NA = did not reach IC50 in the concentrations used, 'a -- b' = bell-shaped curve, read-out: IC50 (nM) of PGA- PTX-E-[c(RGDfk)2] (SEQ ID NO: 18) 2.6 mol % PTX, 5 mol % RGD): 0.01 nM | IC50 (HUVEC [1]; Homo sapiens, 72 hours, bis-cyclic RGD compounds (X = 2), NA = did not reach IC50 in the concentrations used, 'a -- b' = bell-shaped curve, read-out: IC50 (nM) of PGA- PTX-E-[c(RGDfk)2] (SEQ ID NO: 18) 5 mol % PTX, 3.9 mol % RGD): 0.009 nM | IC50 (HUVEC [1]; Homo sapiens, 72 hours, experiment with monocyclic RGD compounds (X = 1), NA = did not reach IC50 in the concentrations used, 'a -- b' = bell-shaped curve, read-out: IC50 (nM) of PGA- PTX-E-c(RGDfk) (SEQ ID NO: 16) 2.1 mol % PTX, 5 mol % RGD): 0.0085 nM | IC50 ([4]; Mus musculus, Panc02, nM PTX, equivalent doses, FIG. 12C, read-out: IC50 of PANC02 proliferation): ~200 nM | IC50 ([4]; Mus musculus, PANC02, 72 hours, bis-cyclic RGD compounds (X = 2), NA = did not reach IC50 in the concentrations used, read-out: IC50 (nM) of PGA- PTX-E-[c(RGDfk)2] (SEQ ID NO: 18) 5 mol % PTX, 3.9 mol % RGD): 200 nM | inhibition at 0.1 µM (HUVEC [2]; Homo sapiens, HUVEC): ~55% | inhibition at 0.01 µM (HUVEC [5]; Homo sapiens, HUVEC, read-out: inhibition of the formation of tubular structures of HUVEC): ~50% | effect on endothelial cell adhesion (HUVEC [3]; free PTX, PGA and combinations, FIG. 15): negligent effect | IC50 ([6]; Homo sapiens, U87, 72 hours, bis-cyclic RGD compounds (X = 2), NA = did not reach IC50 in the concentrations used, 'a -- b' = bell-shaped curve, read-out: IC50 (nM) of PGA- PTX-E-[c(RGDfk)2] (SEQ ID NO: 18) 5 mol % PTX, 3.9 mol % RGD): 0.045 nM | IC50 ([6]; Homo sapiens, nM PTX, equivalent doses, FIG. 12B, read-out: IC50 of U87 proliferation): ~0.01 nM

PGA-PTX-c(RADfk) (cyclo(RAD[dF]K); not fully specified (residue 5); also: polyglutamic acid polymer conjugate, paclitaxel conjugate)
IC50 ([4]; PANC02, 72 hours, bis-cyclic RGD compounds (X = 2), NA = did not reach IC50 in the concentrations used, read-out: IC50 (nM) of PGA- PTX-E-[c(RGDfk)2] (SEQ ID NO: 18) 5 mol % PTX, 3.9 mol % RGD): 2600 nM | IC50 ([4]; nM PTX, equivalent doses, FIG. 12C, read-out: IC50 of PANC02 proliferation): ~2000 nM | inhibition of the formation of tubular structures of HUVEC (HUVEC [5]): about 40% | inhibition of HUVEC adhesion to fibrinogen (HUVEC [3]; control compared to bis-cyclic RGD-bearing conjugates): ~20% | inhibition of HUVEC adhesion to fibrinogen (HUVEC [3]; control compared to monocyclic RGD-bearing conjugate): ~50% | IC50 ([6]; U87, 72 hours, bis-cyclic RGD compounds (X = 2), NA = did not reach IC50 in the concentrations used, 'a -- b' = bell-shaped curve, read-out: IC50 (nM) of PGA- PTX-E-[c(RGDfk)2] (SEQ ID NO: 18) 5 mol % PTX, 3.9 mol % RGD): 65 nM

PGA-c(RADfk) (cyclo(RAD[dF]K); not fully specified (residue 5); also: polyglutamic acid polymer conjugate)
IC50 (HUVEC [1]; 72 hours, bis-cyclic RGD compounds (X = 2), NA = did not reach IC50 in the concentrations used, 'a -- b' = bell-shaped curve, read-out: IC50 (nM) of PGA- PTX-E-[c(RGDfk)2] (SEQ ID NO: 18) 2.6 mol % PTX, 5 mol % RGD): 5000 nM | IC50 (HUVEC [1]; 72 hours, experiment with monocyclic RGD compounds (X = 1), NA = did not reach IC50 in the concentrations used, 'a -- b' = bell-shaped curve, read-out: IC50 (nM) of PGA- PTX-E-c(RGDfk) (SEQ ID NO: 16) 2.1 mol % PTX, 5 mol % RGD): 1000 nM

PGA-c(RADfk)-OG (cyclo(RAD[dF]K); not fully specified (residue 5); also: polyglutamic acid polymer conjugate, Oregon Green label)
time at which conjugate-cell adherence was first observed (αvβ3 integrin receptor; ImageStream 100 imaging flow cytometer): 15 min | extent of binding / uptake by HUVEC (αvβ3 integrin receptor; OG fluorescence, FIGS. 11B, 11C): bound to a much lesser extent

c(RADfk): inactive cyclic peptide RAD, negative control (SEQ ID NO:40) (cyclo(RAD[dF]K); not fully specified (residue 5))
effect on HUVEC proliferation (HUVEC [1]; FIG. 12A): no effect even at those high concentrations | inhibition of the migration of HUVEC towards VEGF (HUVEC [2]): about 30% | effect of free peptides on HUVEC adhesion (HUVEC [3]): no effect

c[Arg-Gly-Asp-Phe-Lys] [E-c(RGDfk)]
effect of free peptides on HUVEC adhesion (HUVEC [3]): completely abrogated HUVEC adhesion
